Experimental data from ChEMBL document CHEMBL4431383, “Structure-activity relationship of novel series of 1,5-disubstituted tetrazoles as cyclooxygenase-2 inhibitors: Design, synthesis, bioassay screening and molecular docking studies” (Bioorg Med Chem Lett, 2016).

Columns and labels:
[1] = target: T1, Prostaglandin G/H synthase 1 (Ovis aries, UniProt P05979); experiment: Inhibition of ovine COX1 assessed as PGH2 formation preincubated for 10 mins followed by addition of arachidonic acid as substrate measured after 2 mins by ELISA
T1 sequence (P05979 whole entry): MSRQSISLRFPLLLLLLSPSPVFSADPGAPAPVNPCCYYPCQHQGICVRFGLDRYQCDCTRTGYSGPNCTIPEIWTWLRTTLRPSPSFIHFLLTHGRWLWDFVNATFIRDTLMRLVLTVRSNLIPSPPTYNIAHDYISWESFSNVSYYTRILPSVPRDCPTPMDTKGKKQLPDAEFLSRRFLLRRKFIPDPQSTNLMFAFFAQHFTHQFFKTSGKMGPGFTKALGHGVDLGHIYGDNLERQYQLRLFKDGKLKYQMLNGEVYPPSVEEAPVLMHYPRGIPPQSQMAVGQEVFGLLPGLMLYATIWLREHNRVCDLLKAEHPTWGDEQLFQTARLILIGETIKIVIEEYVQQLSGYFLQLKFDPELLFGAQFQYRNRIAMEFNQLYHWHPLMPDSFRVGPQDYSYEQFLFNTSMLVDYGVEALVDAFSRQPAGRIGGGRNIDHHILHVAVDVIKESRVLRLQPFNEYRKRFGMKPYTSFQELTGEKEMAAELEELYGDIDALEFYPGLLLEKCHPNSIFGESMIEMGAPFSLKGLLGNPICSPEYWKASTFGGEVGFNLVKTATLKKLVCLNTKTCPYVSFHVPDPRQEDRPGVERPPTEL

[2] = target: T2, Prostaglandin G/H synthase 2 (Homo sapiens, UniProt P35354); experiment: Inhibition of recombinant human COX2 assessed as PGH2 formation preincubated for 10 mins followed by addition of arachidonic acid as substrate measured after 2 mins by ELISA
T2 sequence (P35354 whole entry): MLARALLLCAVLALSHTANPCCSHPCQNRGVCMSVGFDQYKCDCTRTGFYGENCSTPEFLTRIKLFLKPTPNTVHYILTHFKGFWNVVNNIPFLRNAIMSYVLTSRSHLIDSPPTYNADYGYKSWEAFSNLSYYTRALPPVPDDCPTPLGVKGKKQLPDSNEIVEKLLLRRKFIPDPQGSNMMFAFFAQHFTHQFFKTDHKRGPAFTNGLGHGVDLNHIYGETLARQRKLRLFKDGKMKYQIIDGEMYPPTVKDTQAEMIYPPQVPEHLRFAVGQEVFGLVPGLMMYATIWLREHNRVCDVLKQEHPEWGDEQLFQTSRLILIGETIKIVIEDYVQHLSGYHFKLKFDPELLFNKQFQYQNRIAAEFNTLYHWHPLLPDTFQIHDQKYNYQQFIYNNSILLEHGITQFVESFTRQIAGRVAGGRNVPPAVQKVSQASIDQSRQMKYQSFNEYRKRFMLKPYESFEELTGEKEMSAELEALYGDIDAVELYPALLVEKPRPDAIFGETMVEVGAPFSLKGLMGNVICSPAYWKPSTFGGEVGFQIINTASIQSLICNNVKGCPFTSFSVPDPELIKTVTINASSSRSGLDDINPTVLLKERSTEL

[3] = Selectivity ratio of IC50 for ovine COX-1 to IC50 for recombinant human COX-2
[4] = Selectivity ratio of IC50 for recombinant human COX-2 to IC50 for ovine COX-1

| Compound | IC50 [1] [µM] | IC50 [2] [µM] | Ratio IC50 [3] | Ratio IC50 [4] |
| --- | --- | --- | --- | --- |
| NS(=O)(=O)c1ccc(-c2nnnn2-c2ccc(CCO)cc2)cc1 | > 200 | 99 | > 2 |  |
| CS(=O)(=O)c1ccc(Cc2nnnn2-c2ccc(CCO)cc2)cc1 | > 200 | 3 | > 67 | > 0.015 |
| CS(=O)(=O)c1ccc(-c2nnnn2-c2ccc(CCO)cc2)cc1 | > 500 | 70 | > 7.1 |  |
| NS(=O)(=O)c1ccc(-c2nnnn2-c2ccc(O)cc2)cc1 | 100 | > 500 | > 0.2 |  |
| CS(=O)(=O)c1ccc(-c2nnnn2-c2ccc(O)cc2)cc1 | > 500 | > 300 | > 1.7 |  |
| CS(=O)(=O)c1ccc(Cc2nnnn2-c2ccc(CO)cc2)cc1 | > 200 | 38 | > 5.2 | > 0.19 |

These reach a lower IC50 [1]. Values come first.

| IC50 [1] [µM] | IC50 [2] [µM] | Ratio IC50 [3] | Ratio IC50 [4] | Compound |
| --- | --- | --- | --- | --- |
| 85 | > 200 | > 0.42 |  | CS(=O)(=O)c1ccc(Cc2nnnn2-c2ccc(O)cc2)cc1 |
| 21 | 24 | 0.87 | 1.14 | NS(=O)(=O)c1ccc(-c2nnnn2-c2ccc(CO)cc2)cc1 |
| 9 | > 500 | > 0.02 | 55 | CS(=O)(=O)c1ccc(-c2nnnn2-c2ccc(CO)cc2)cc1 |
